The target in one series is σ1 receptors (Homo sapiens, UniProt Q99720). The note with it: cited from earlier work.
Series [1] concerns the target σ2 receptors (Homo sapiens, UniProt Q5BJF2). The following applies: cited from earlier work.
A further series has as its system EMT-6 tumors. As to the kind of experiment: Biodistribution of 18F-labeled ligands in mice bearing EMT-6 tumors. In kind it is in vivo, female Balb/c mice. As for the experimental part: This example illustrates in vivo evaluation of compounds of the present teachings. All animal experiments were conducted in compliance with the Guidelines for the Care and Use of Research Animals established by Washington University's Animal Studies Committee. EMT-6 mouse mammary adenocarcinoma cells (5×10^5 cells in 100 uL of phosphate-buffered saline) were implanted subcutaneously in the scapular region of female Balb/c mice (˜2-month old and 17-22 g; Charles River Laboratories). […] Groups of at least 4 mice were used for each time point. […] After counting, the percentage of the injected dose per gram of tissue (%ID/g) was calculated. The tumor/organ ratios were calculated by dividing the %ID/g of the tumor by the %ID/g of each organ.

Series [2] addresses T1, σ2 receptors (Mus musculus, UniProt Q8VD00).
T1 construct: from tissue; host or cells: EMT-6 tumours in female Balb/c mice, in vivo
T1 sequence (Q8VD00 1-176): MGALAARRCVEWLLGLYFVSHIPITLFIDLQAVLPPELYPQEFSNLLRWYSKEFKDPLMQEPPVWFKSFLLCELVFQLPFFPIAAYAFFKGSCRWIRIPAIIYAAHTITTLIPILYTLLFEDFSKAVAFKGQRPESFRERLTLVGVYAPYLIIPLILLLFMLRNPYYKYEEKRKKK
As to the kind of experiment: Blocking study: co-injection of 1 mg/kg YUN-143 in EMT-6 tumor-bearing mice. In kind it is in vivo. The following applies: 1 mg/kg YUN-143, 1 h post-injection. As for the experimental part:
These blocking studies in tumor-bearing mice were conducted by co-injecting 1 mg/kg of cold N-(4-fluorobenzyl) piperidinyl-4-(3-bromophenyl)acetamide (YUN-143) with [^18F]3c or [^18F]3f.

Where “and” joins values, the source holds several entries; their conditions need not be identical. Identical values can stand only once.

Chain of σ2 receptors (Homo sapiens, UniProt Q5BJF2) (Q5BJF2 whole entry): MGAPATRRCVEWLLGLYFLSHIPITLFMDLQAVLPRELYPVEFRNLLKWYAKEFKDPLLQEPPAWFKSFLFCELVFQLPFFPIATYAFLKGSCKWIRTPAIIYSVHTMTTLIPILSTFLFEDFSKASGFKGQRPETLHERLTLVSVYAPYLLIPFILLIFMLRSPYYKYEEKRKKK
Chain of σ1 receptors (Q99720 whole entry): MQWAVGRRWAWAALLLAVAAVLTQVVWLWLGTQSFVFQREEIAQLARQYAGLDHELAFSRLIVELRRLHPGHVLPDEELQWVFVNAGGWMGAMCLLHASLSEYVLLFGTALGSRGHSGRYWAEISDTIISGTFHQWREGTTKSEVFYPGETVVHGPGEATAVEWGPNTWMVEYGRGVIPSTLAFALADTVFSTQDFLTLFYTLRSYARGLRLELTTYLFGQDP

`O=C(Cc1cccc(Br)c1)NC1CCN(Cc2ccc(F)cc2)CC1` [YUN-143, N-(4-fluorobenzyl)piperidinyl-4-(3-bromophenyl) acetamide]: at σ1 receptors, the “affinity for σ1 receptors (in words)” value was “high affinity”. For the same molecule, the “affinity for σ2 receptors (in words)” value at σ2 receptors [1] was “high affinity”.

For `COc1cc2c(cc1OC)CN(CCCCNC(=O)c1cc(C)ccc1OCC[18F])CC2` [[^18F]3c], in the series with EMT-6 tumors (5 min after i.v. injection), the “Biodistribution: blood” value is 2.49 ± 0.49 %ID/g, the “Biodistribution: bone” value is on record as 2.49 ± 0.19 %ID/g, the “Biodistribution: brain” value is recorded as 0.76 ± 0.06 %ID/g and the “Biodistribution: fat” value is 1.95 ± 0.33 %ID/g. In the series on EMT-6 tumors (5 min after i.v. injection), the “Biodistribution: heart” value came out at 3.73 ± 0.15 %ID/g, the “Biodistribution: kidney” value stood at 29.18 ± 1.92 %ID/g, the “Biodistribution: liver” value is reported as 23.33 ± 4.22 %ID/g and the “Biodistribution: lung” value is 10.26 ± 0.71 %ID/g. In addition, in the series on EMT-6 tumors (5 min after i.v. injection), the “Biodistribution: muscle” value turned out to be 1.86 ± 0.08 %ID/g and the “Biodistribution: tumor (tumor uptake)” value came out at 3.67 ± 0.45 %ID/g. In addition, in the series on EMT-6 tumors (30 min after i.v. injection), the “Biodistribution: blood” value worked out at 1.16 ± 0.10 %ID/g, the “Biodistribution: bone” value turned out to be 0.96 ± 0.15 %ID/g, the “Biodistribution: brain” value is given as 0.27 ± 0.05 %ID/g and the “Biodistribution: fat” value came out at 0.59 ± 0.13 %ID/g. For the same molecule, in the series with EMT-6 tumors (30 min after i.v. injection), the “Biodistribution: heart” value worked out at 1.15 ± 0.06 %ID/g, the “Biodistribution: kidney” value is on record as 6.86 ± 0.45 %ID/g, the “Biodistribution: liver” value came out at 10.51 ± 0.87 %ID/g and the “Biodistribution: lung” value stood at 2.36 ± 0.19 %ID/g. Moreover, in the series on EMT-6 tumors (30 min after i.v. injection), the “Biodistribution: muscle” value is reported as 0.70 ± 0.19 %ID/g and the “Biodistribution: tumor (tumor uptake)” value is given as 2.54 ± 0.27 %ID/g. The “Biodistribution: tumor (tumor uptake)” value in the series with EMT-6 tumors (60 min (1 h) after i.v. injection) stood at 1.14 ± 0.10 %ID/g. In the series on EMT-6 tumors (60 min after i.v. injection), the “Biodistribution: blood” value is 0.56 ± 0.08 %ID/g, the “Biodistribution: bone” value is 0.55 ± 0.07 %ID/g, the “Biodistribution: brain” value turned out to be 0.18 ± 0.03 %ID/g and the “Biodistribution: fat” value came out at 0.22 ± 0.04 %ID/g. For the same molecule, in the series on EMT-6 tumors (60 min after i.v. injection), the “Biodistribution: heart” value came to 0.55 ± 0.07 %ID/g, the “Biodistribution: kidney” value is given as 2.51 ± 0.51 %ID/g, the “Biodistribution: liver” value is on record as 4.14 ± 0.55 %ID/g and the “Biodistribution: lung” value worked out at 0.88 ± 0.12 %ID/g. Besides, the “Biodistribution: muscle” value in the series with EMT-6 tumors (60 min after i.v. injection) is 0.34 ± 0.05 %ID/g. In addition, the “Biodistribution: tumor (tumor uptake)” value with EMT-6 tumors (120 min (2 h) after i.v. injection) is 0.64 %ID/g and 0.64 ± 0.10 %ID/g. Further, in the series on EMT-6 tumors (120 min after i.v. injection), the “Biodistribution: blood” value was 0.35 ± 0.05 %ID/g, the “Biodistribution: bone” value is listed as 0.45 ± 0.11 %ID/g, the “Biodistribution: brain” value is reported as 0.12 ± 0.02 %ID/g and the “Biodistribution: fat” value is listed as 0.08 ± 0.02 %ID/g. Besides, in the series on EMT-6 tumors (120 min after i.v. injection), the “Biodistribution: heart” value amounted to 0.27 ± 0.04 %ID/g, the “Biodistribution: kidney” value came to 0.87 ± 0.13 %ID/g, the “Biodistribution: liver” value is reported as 2.05 ± 0.43 %ID/g and the “Biodistribution: lung” value is reported as 0.43 ± 0.07 %ID/g. Besides, the “Biodistribution: muscle” value with EMT-6 tumors (120 min after i.v. injection) is listed as 0.24 ± 0.08 %ID/g. Further, the “tumor:fat ratio” value in the series on EMT-6 tumors (2 h after i.v. injection) is reported as ~8. In the series on EMT-6 tumors (mouse, in vivo), the “clearance from the blood (in words)” value is listed as “rapid clearance from the blood”. Further, on σ2 receptors [2], the “decrease in the tumor:fat ratio on co-injection of YUN-143” value is listed as ~50% and the “decrease in the tumor:muscle ratio on co-injection of YUN-143” value is ~50%.

These data come from patent US7659400B2, “Radiolabelled benzamide analogues, their synthesis and use in diagnostic imaging” (Washington University, priority 2003, dated 2010).
